Measured values taken from PubChem BioAssay AID248 (DTP/NCI, 2004).
Values joined by “and” are separate entries in the source; they are usually repeats but may differ in a detail not shown here. Equal values may be shown once. Inconclusive results and toxic doses are left out.

System: L1210 leukemia ip in BDF1 mice, survival T/C
Assay: NCI In Vivo Anticancer Drug Screen. Data for tumor model L1210 Leukemia (intraperitoneal) in B6D2F1 (BDF1) mice
Settings: endpoint: mean survival time, higher = longer survival
Outline: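 Read-out is survival time, reported as the treated-group measurement over the vehicle-control measurement.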

[1] = dose: 200.0 mg/kg/injection, schedule: Q04DX003 (ip), vehicle: saline with Tween-80
[2] = dose: 400.0 mg/kg/injection, schedule: Q04DX003 (ip), vehicle: saline with Tween-80
[3] = dose: 50.0 mg/kg/injection, schedule: Q04DX003 (ip), vehicle: saline with Tween-80
[4] = dose: 100.0 mg/kg/injection, schedule: Q04DX003 (ip), vehicle: saline with Tween-80
[5] = dose: 100.0 mg/kg/injection, schedule: Q01DX009 (ip), vehicle: Klucel (hydroxypropylcellulose) (HPC)
[6] = dose: 100.0 mg/kg/injection, schedule: Q04DX003 (ip), vehicle: Klucel (hydroxypropylcellulose) (HPC)
[7] = dose: 200.0 mg/kg/injection, schedule: Q01DX009 (ip), vehicle: Klucel (hydroxypropylcellulose) (HPC)
[8] = dose: 200.0 mg/kg/injection, schedule: Q04DX003 (ip), vehicle: Klucel (hydroxypropylcellulose) (HPC)
[9] = dose: 400.0 mg/kg/injection, schedule: Q04DX003 (ip), vehicle: Klucel (hydroxypropylcellulose) (HPC)
[10] = dose: 100.0 mg/kg/injection, schedule: Q01DX001 (ip), vehicle: carboxymethylcellulose (CMC)
[11] = dose: 200.0 mg/kg/injection, schedule: Q01DX001 (ip), vehicle: carboxymethylcellulose (CMC)
[12] = dose: 400.0 mg/kg/injection, schedule: Q01DX001 (ip), vehicle: carboxymethylcellulose (CMC)
[13] = dose: 100.0 mg/kg/injection, schedule: Q04DX003 (ip), vehicle: saline
[14] = dose: 200.0 mg/kg/injection, schedule: Q04DX003 (ip), vehicle: saline
[15] = dose: 400.0 mg/kg/injection, schedule: Q04DX003 (ip), vehicle: saline
[16] = dose: 12.5 mg/kg/injection, schedule: Q04DX003 (ip), vehicle: saline with Tween-80
[17] = dose: 25.0 mg/kg/injection, schedule: Q04DX003 (ip), vehicle: saline with Tween-80

In the case of `O=C(Nc1ccc(NC(=O)c2ccc(C3=NCCCN3)cc2)cc1)c1ccc(C2=NCCCN2)cc1`, the T/C (dose: 0.93 mg/kg/injection, schedule: Q01DX Z (ip), vehicle: carboxymethylcellulose (CMC)) is reported as 106 % of control, the T/C (dose: 1.87 mg/kg/injection, schedule: Q01DX Z (ip), vehicle: carboxymethylcellulose (CMC)) is reported as 100 % of control and the T/C (dose: 3.75 mg/kg/injection, schedule: Q01DX Z (ip), vehicle: carboxymethylcellulose (CMC)) is reported as 108 % of control and 118 % of control. The T/C (dose: 7.5 mg/kg/injection, schedule: Q01DX Z (ip), vehicle: carboxymethylcellulose (CMC)) was 166 % of control and 191 % of control, the T/C (dose: 15.0 mg/kg/injection, schedule: Q01DX Z (ip), vehicle: carboxymethylcellulose (CMC)) was 200 % of control and 204 % of control and the T/C (dose: 30.0 mg/kg/injection, schedule: Q01DX Z (ip), vehicle: carboxymethylcellulose (CMC)) was 101 % of control. The T/C (dose: 37.5 mg/kg/injection, schedule: Q01DX Z (oral), vehicle: carboxymethylcellulose (CMC)) was 101 % of control, the T/C (dose: 75.0 mg/kg/injection, schedule: Q01DX Z (oral), vehicle: carboxymethylcellulose (CMC)) was 110 % of control and the T/C (dose: 150.0 mg/kg/injection, schedule: Q01DX Z (oral), vehicle: carboxymethylcellulose (CMC)) was 101 % of control. For the same compound, the T/C (dose: 300.0 mg/kg/injection, schedule: Q01DX Z (oral), vehicle: carboxymethylcellulose (CMC)) was 106 % of control.
In the case of `NC(CSC(c1ccccc1)(c1ccccc1)c1ccc(C(=O)O)cc1)C(=O)O` (stereo not drawn), the T/C (dose: 12.5 mg/kg/injection, schedule: Q01DX009 (ip), vehicle: water) is reported as 106 % of control, the T/C (dose: 25.0 mg/kg/injection, schedule: Q01DX009 (ip), vehicle: water) is reported as 102 % of control and 103 % of control and the T/C (dose: 50.0 mg/kg/injection, schedule: Q01DX009 (ip), vehicle: water) is reported as 103 % of control and 100 % of control. For the same compound, the T/C (dose: 100.0 mg/kg/injection, schedule: Q01DX009 (ip), vehicle: water) was 101 % of control and 108 % of control, the T/C (dose: 200.0 mg/kg/injection, schedule: Q01DX009 (ip), vehicle: water) was 102 % of control and the T/C (dose: 400.0 mg/kg/injection, schedule: Q01DX009 (ip), vehicle: water) was 97 % of control and 102 % of control.
For `Cc1ccc(/C=C2\CC(C)(C)c3ccccc3C2=O)cc1`, the T/C [1] was 100 % of control and the T/C [2] was 93 % of control.
With `C(#Cc1ccccc1)COCC1CO1` (stereo not drawn) the T/C [3] was 95 % of control, the T/C [4] was 98 % of control and the T/C [1] was 91 % of control.
`C/C(=N\OC(=O)c1ccc([N+](=O)[O-])cc1)C(C)(C)C` was tested, and the T/C (dose: 100.0 mg/kg/injection, schedule: Q04DX002 (ip), vehicle: Klucel (hydroxypropylcellulose) (HPC)) was 88 % of control, the T/C (dose: 200.0 mg/kg/injection, schedule: Q04DX002 (ip), vehicle: Klucel (hydroxypropylcellulose) (HPC)) was 100 % of control and the T/C (dose: 400.0 mg/kg/injection, schedule: Q04DX002 (ip), vehicle: Klucel (hydroxypropylcellulose) (HPC)) was 96 % of control.
With `O=c1oc(-c2ccco2)nc2ccccc12` the T/C [5] was 101 % of control, the T/C [6] was 102 % of control and the T/C [7] was 110 % of control. For the same compound, the T/C [8] was 95 % of control and the T/C [9] was 93 % of control.
In the case of `CCCCOC(=O)/C=C/C(=O)[O][Sn]([CH2]CCC)([CH2]CCC)[O]C(=O)/C=C/C(=O)OCCCC`, the T/C (dose: 12.5 mg/kg/injection, schedule: Q01DX009 (sc), vehicle: olive oil, sesame oil, peanut oil) is reported as 98 % of control, the T/C (dose: 25.0 mg/kg/injection, schedule: Q01DX009 (sc), vehicle: olive oil, sesame oil, peanut oil) is reported as 108 % of control and the T/C (dose: 25.0 mg/kg/injection, schedule: Q04DX002 (sc), vehicle: olive oil, sesame oil, peanut oil) is reported as 97 % of control. For the same compound, the T/C (dose: 50.0 mg/kg/injection, schedule: Q01DX009 (sc), vehicle: olive oil, sesame oil, peanut oil) was 95 % of control, the T/C (dose: 50.0 mg/kg/injection, schedule: Q04DX002 (sc), vehicle: olive oil, sesame oil, peanut oil) was 94 % of control and the T/C (dose: 100.0 mg/kg/injection, schedule: Q04DX002 (sc), vehicle: olive oil, sesame oil, peanut oil) was 96 % of control and 106 % of control. The T/C (dose: 200.0 mg/kg/injection, schedule: Q04DX002 (sc), vehicle: olive oil, sesame oil, peanut oil) was 89 % of control.
For `COC(=O)C(C(=O)OC)c1c(N)n(C)c(=O)n(C)c1=O`, the T/C (dose: 100.0 mg/kg/injection, schedule: Q01DX001 (ip), vehicle: Klucel (hydroxypropylcellulose) (HPC)) was 93 % of control, the T/C (dose: 200.0 mg/kg/injection, schedule: Q01DX001 (ip), vehicle: Klucel (hydroxypropylcellulose) (HPC)) was 100 % of control and the T/C (dose: 400.0 mg/kg/injection, schedule: Q01DX001 (ip), vehicle: Klucel (hydroxypropylcellulose) (HPC)) was 100 % of control.
`CC(C(=O)c1ccc(O)c(O)c1)N1CCCCC1` (stereo not drawn) was tested, and the T/C [10] was 102 % of control, the T/C [11] was 102 % of control and the T/C [12] was 96 % of control.
For `C=C(C)C1(CCCC)C(=O)NC(=S)NC1=O`, the T/C (dose: 75.0 mg/kg/injection, schedule: Q01DX001 (ip), vehicle: saline) was 102 % of control and the T/C (dose: 150.0 mg/kg/injection, schedule: Q01DX001 (ip), vehicle: saline) was 95 % of control.
`O=C(Nc1ccc(C(=O)Nc2ccc(C3=NCCCN3)cc2)cc1)Nc1ccc(C2=NCCCN2)cc1` was tested, and the T/C (dose: 0.94 mg/kg/injection, schedule: Q01DX Z (ip), vehicle: saline) was 103 % of control, the T/C (dose: 1.88 mg/kg/injection, schedule: Q01DX Z (ip), vehicle: saline) was 117 % of control and the T/C (dose: 18.8 mg/kg/injection, schedule: Q01DX004 (oral), vehicle: saline) was 94 % of control. The T/C (dose: 37.5 mg/kg/injection, schedule: Q01DX009 (oral), vehicle: saline) was 91 % of control, the T/C (dose: 75.0 mg/kg/injection, schedule: Q01DX009 (oral), vehicle: saline) was 93 % of control and the T/C (dose: 150.0 mg/kg/injection, schedule: Q01DX004 (oral), vehicle: saline) was 93 % of control.
With `O=N[O-].O=N[O-].O=N[O-].[Co+3].[NH2-].[NH2-].[NH2-]` the T/C (dose: 100.0 mg/kg/injection, schedule: Q01DX001 (ip), vehicle: saline) was 92 % of control, the T/C [13] was 119 % of control and the T/C (dose: 200.0 mg/kg/injection, schedule: Q01DX001 (ip), vehicle: saline) was 90 % of control. For the same compound, the T/C [14] was 105 % of control, the T/C (dose: 400.0 mg/kg/injection, schedule: Q01DX001 (ip), vehicle: saline) was 97 % of control and the T/C [15] was 97 % of control.
`Cc1cccc(NC(=O)NCCOC(=O)OCCNC(=O)Nc2cccc(C)c2C)c1C` was tested, and the T/C (dose: 100.0 mg/kg/injection, schedule: Q01DX009 (ip), vehicle: saline with Tween-80) was 97 % of control, the T/C [4] was 91 % of control and the T/C (dose: 200.0 mg/kg/injection, schedule: Q01DX009 (ip), vehicle: saline with Tween-80) was 98 % of control. The T/C [1] was 91 % of control, the T/C (dose: 400.0 mg/kg/injection, schedule: Q01DX009 (ip), vehicle: saline with Tween-80) was 97 % of control and the T/C [2] was 106 % of control.
`O=[N+]([O-])c1ccc2ccc3ccccc3c2c1` was tested, and the T/C [10] was 97 % of control, the T/C [11] was 95 % of control and the T/C [12] was 97 % of control.
`CN(C)CC(=O)N/N=C\c1ccc([N+](=O)[O-])s1` was tested, and the T/C [13] was 91 % of control and the T/C [14] was 93 % of control.
With `O=C(CCCc1ccc(N(CCCl)CCCl)cc1)OCc1ccccc1` the T/C (dose: 100.0 mg/kg/injection, schedule: Q04DX002 (ip), vehicle: saline) was 121 % of control, the T/C (dose: 200.0 mg/kg/injection, schedule: Q04DX002 (ip), vehicle: saline) was 108 % of control and the T/C (dose: 400.0 mg/kg/injection, schedule: Q04DX002 (ip), vehicle: saline) was 121 % of control.
For `CC(C)C1CCC(C(=O)O)CC1` (stereo not drawn), the T/C [5] was 102 % of control, the T/C [6] was 96 % of control and the T/C [7] was 95 % of control. The T/C [8] was 100 % of control, the T/C (dose: 400.0 mg/kg/injection, schedule: Q01DX009 (ip), vehicle: Klucel (hydroxypropylcellulose) (HPC)) was 97 % of control and the T/C [9] was 103 % of control.
For `CCN(CC)C(=O)c1ccc[n+](CC(=O)Nc2ccc(Cl)cc2)c1`, the T/C (dose: 12.5 mg/kg/injection, schedule: Q01DX009 (ip), vehicle: saline with Tween-80) was 97 % of control, the T/C [16] was 100 % of control and the T/C (dose: 25.0 mg/kg/injection, schedule: Q01DX009 (ip), vehicle: saline with Tween-80) was 97 % of control. The T/C [17] was 94 % of control, the T/C (dose: 50.0 mg/kg/injection, schedule: Q01DX009 (ip), vehicle: saline with Tween-80) was 97 % of control and the T/C [3] was 103 % of control.
For `NC(=O)N/N=C(\CBr)c1ccc([N+](=O)[O-])cc1`, the T/C [13] was 96 % of control, the T/C [14] was 89 % of control and the T/C [15] was 91 % of control.
For `O=C(/C=C/c1ccccn1)c1ccccc1O`, the T/C [16] was 92 % of control, the T/C [17] was 100 % of control and the T/C [3] was 92 % of control.
